Experimental findings from patent US7608642B2, “Wound and skin care compositions” (Kimberly-Clark Worldwide, Inc., priority 2002, dated 2009) are described below.

Where “and” joins values, the source holds several entries; their conditions need not be identical. Equal entries are not always repeated. Entries after “also recorded” stand apart in the source; their conditions may differ. Where two headings read alike, the source gives them in different places.

In series [1] the test system is human skin fibroblast cell line (normal human dermal fibroblasts, neonatal). To be noted: for Cell proliferating activity on human skin fibroblasts (in words): 1×10^−4 M to 1×10^−6 M vs control; for Mean optical density (OD) at 490 nm, cell proliferation / Median optical density (OD) at 490 nm, cell proliferation: 28 hours, serum-free DMEM, n=5.
Experimental: Statistical analyses of data were performed using one-way ANOVA. P<0.05 is considered significant, while P<0.0001 is considered extremely significant and P<0.001 is considered as very very significant.
In series [2] the test system is fibronectin production in the human skin fibroblast cell line. Description: Fibronectin production in human skin fibroblasts (Takara EIA kit MK115, absorbance 450 nm). To be noted: for Stimulation of fibronectin production (in words): 1×10^−4 M to 1×10^−6 M vs control; for Mean optical density (OD) at 450 nm, fibronectin production / Median optical density (OD) at 450 nm, fibronectin production: 48 hours, n=2. In kind it is cell-based. Here is the method:
The cells were first grown in a 96-well assay system using Dulbecco's Modified Eagle's Medium (DMEM) with 10% fetal bovine serum (FBS) both purchased from Sigma Chemical Co, St. Louis, Mo. Serum-free DMEM was used as a control. […] The fibronectin assay was performed using the recommended 100 μl of the supernatant from each well of the 96-well plate. Standard buffer and stop solutions were freshly prepared before running the assay. A pre-antibody-coated 96 well plate (provided with the kit) was used to transfer the test samples and control. The plate was mixed, sealed and incubated for 1 hour at 37° C. All the wells were washed after removing sample solutions, 3 times (300 μl) with washing buffer. 100 ul of antibody-POD conjugate solution was added into the wells. Plate was mixed, sealed and incubated for one hour at 37° C. Solutions were removed and the wells were washed 3 times with washing buffer. All the wells were completely emptied at the end of washing from any liquid. 100 μl of substrate solution (hydrogen peroxide and tetramethylbenzidine in a buffered solution) was added to each well and the plate was incubated at room temperature for 15 minutes. 100 μl of stop solution (freshly prepared 1N H2SO4) was added to each well in the same order as substrate. The plate was gently mixed and absorbance was read at 450 nm.

Series [3] has as its system collagen production in the human skin fibroblast cell line. Description: Collagen production in human skin fibroblasts (Takara EIA kit MK101, absorbance 450 nm). In kind it is cell-based. The following applies: for Stimulation of collagen production (in words): 1×10^−4 M to 1×10^−6 M vs control; for Mean optical density (OD) at 450 nm, collagen production / Median optical density (OD) at 450 nm, collagen production: 48 hours, n=2. Here is the method: The cells were first grown in a 96-well assay system using Dulbecco's Modified Eagle's Medium (DMEM) with 10% fetal bovine serum (FBS) both purchased from Sigma Chemical Co, St. Louis, Mo. Serum-free DMEM was used as a control.
The assay was done by using the recommended 20 ul of the supernatant from each well of the 96-well plate. Standard buffer and stop solutions were freshly prepared before running the assay. 100 ul of antibody-POD conjugate solution (supplied with the kit) was added into the wells using pre antibody coated 96 well plate (supplied with the kit). 20 ul of standard and test solutions (from the other 96-well plate containing fibroblasts) were added to appropriate wells. Plate was mixed gently, sealed and incubated for three hrs. at 37° C.
After incubation each well was washed carefully four times with PBS buffer (400 ul). All the wells were completely emptied at the end of washing from any liquid.
100 ul of substrate solution (hydrogen peroxide and tetramethylbenzidine in a buffer solution, supplied with the kit) was added to each well and the plate was incubated for 15 minutes. At this point 100 ul of stop solution (freshly prepared 1N H2SO4) was added to each well in the same order as substrate. The plate was gently mixed and absorbance was read at 450 nm.

For series [4], the system named is human skin keratinocyte cell line (normal human epidermal keratinocytes, neonatal). Description: Proliferation of human skin keratinocytes (Cell Titer 96, absorbance 490 nm). In kind it is cell-based. To be noted: for Cell proliferating activity on human keratinocytes (in words): 1×10^−4 M to 1×10^−6 M vs control; for Mean optical density (OD) at 490 nm, cell proliferation / Median optical density (OD) at 490 nm, cell proliferation: 48 hours, KBM, n=5. As for the experimental part:
In addition, 100 μl of vehicle KBM was added to 5 wells as control. […] The spectrophotometric absorbance of each well was read at 490 nm.

For another series, the system named is Swiss Albino mice. Description: Wound healing, full thickness skin wounds (3 mm biopsy punch) in mice. Type of series: in vivo, mouse. Here is the method: Twenty, 12-week old Swiss Albino mice were anesthetized with a ketamine/acepromazine cocktail and subjected to four full thickness skin wounds on the dorsolateral surface. […] Jasmonic acid (100 mg) was dissolved in 2 ml ethanol. 200 μl of the resulting solution was then added to 4.8 ml of WFI. Four wounds were made on either side of the spinal column using a 3 mm biopsy punch. To make the wounds, the skin was first tented and the punch was driven through the tented skin to generate both wounds with a single stroke. The upper left quadrant wound site of the animal was assigned to receive the control solution (WFI). […] The wound sites were dosed 5 times (twice on Day 0, Day 1, and once on Day 2). All wounds were treated with 5 μl of test or control solutions. Wounds were allowed to absorb the solutions for 5 minutes before returning the animals to their cages for recovery. All the animals were housed singly. The in-life phase for the animals is 5 days. Each day the wounds on the mice were traced onto glass slides and measured using calipers accurate to the nearest 0.1 mm. Photographs of the wounds were also taken daily for the duration of the study to measure wound size. Means and the standard deviations of the wound diameters for each day were calculated for the healing profile. The effects of the test substances on wound healing were compared to the effects of the control (WFI).

In series [5] the test system is healthy female volunteers. Description: Dansyl chloride cell renewal study (stratum corneum renewal time). Type of series: in vivo, human. The text has this: The stratum corneum renewal time is the time taken for the whole thickness of the stratum corneum to be exfoliated and replaced by new cells from the dividing epidermis. This renewal time is a fundamental indicator of skin health. […] See Jansen L H, Hojyo-Tomoko M T, Kligman A M., Improved fluorescence staining technique for estimating turnover of the human stratum corneum, Br J Dermatol., 90, 9-12, 1974; Ridge B D, Batt M D, Palmer H E, Jarrett A, The dansyl chloride technique for stratum corneum renewal as an indicator of changes in epidermal mitotic activity following topical treatment., Br J Dermatol., 118, 167-74, 1988; Grove G L, Kligman A M, Age-associated changes in human epidermal cell renewal., J Geron., 38, 137-142, 1983. The time required for the dye to disappear is therefore an indication of the turnover time of the stratum corneum. Therefore, any differences in the time required for the dye to disappear from treated and non-treated sites can be considered to be an expression of that product's ability to enhance epidermal renewal.
A dansyl chloride cell renewal study was conducted in healthy female volunteers ranging from 43-64 years of age. The study consisted of a two-week treatment period during which time the products were applied topically twice daily, including on weekend days, to the test sites. The area of application was designated, approximately 5 cm×10 cm on the upper inner arm. The other arm served as a control with no product application. […] Eight females received jasmonic acid and seven females received gibberellic acid.
The time required for a marker dye to disappear was used as the measure of cell renewal rate.

`O=C(O)c1ccccc1O` [salicylic acid]: the “Cell proliferating activity on human skin fibroblasts (in words)” value in series [1] is on record as “strong cell proliferating activity especially at the lower concentrations; also recorded: all concentrations of salicylic acid had a significant effect on cell growth”. Also, the “Mean optical density (OD) at 490 nm, cell proliferation” value (shortened to “Mean optical density (OD) at 490 nm”) in series [1] (1×10^−4 M) amounted to 0.3916; in series [1] (1×10^−5 M), 0.5004; in series [1] (1×10^−6 M) it was 0.4668. In addition, the “Median optical density (OD) at 490 nm, cell proliferation” value (“Median optical density (OD) at 490 nm” below) is 0.5110 in series [1] (1×10^−5 M) and 0.4690 in series [1] (1×10^−6 M).
With zeatin, the “Stimulation of fibronectin production (in words)” value in series [2] is on record as “effective for stimulating fibronectin production in human fibroblasts; also recorded: all compounds stimulated fibronectin production”. Further, the figures for the “Mean optical density (OD) at 450 nm, fibronectin production” value in series [2] (1×10^−4 M), in series [2] (1×10^−5 M) and in series [2] (1×10^−6 M) were 0.2075, 0.2110 and 0.1995, respectively. In addition, the “Median optical density (OD) at 450 nm, fibronectin production” value was 0.2075 in series [2] (1×10^−4 M), 0.2110 in series [2] (1×10^−5 M) and 0.1995 in series [2] (1×10^−6 M). Further, the “Stimulation of collagen production (in words)” value in series [3] was “strongly stimulated collagen production at medium concentrations; also recorded: medium concentrations of zeatin also stimulated collagen production”. Further, the results for the “Mean optical density (OD) at 450 nm, collagen production” value in series [3] (1×10^−4 M), in series [3] (1×10^−5 M) and in series [3] (1×10^−6 M) were 0.7665, 0.8115 and 0.7715, respectively. The figures for the “Median optical density (OD) at 450 nm, collagen production” value in series [3] (1×10^−4 M), in series [3] (1×10^−5 M) and in series [3] (1×10^−6 M) were 0.7665, 0.8115 and 0.7715, respectively. For the same molecule, in series [4] (listed as t-zeatin), the “Cell proliferating activity on human keratinocytes (in words)” value is listed as “strong cell proliferating activity at all concentrations; also recorded: all concentrations of t-zeatin had a significant effect on cell growth”. Further, the “Mean optical density (OD) at 490 nm” value in series [4] (1×10^−4 M) worked out at 0.7726; in series [4] (1×10^−5 M), 0.8716; in series [4] (1×10^−6 M) it was 0.9770. Further, the “Median optical density (OD) at 490 nm” value is listed as 0.7880 in series [4] (1×10^−4 M), 0.8790 in series [4] (1×10^−5 M) and 0.9830 in series [4] (1×10^−6 M).
As for `CC/C=C\C[C@H]1C(=O)CC[C@@H]1CC(=O)O` [jasmonic acid], in the series on Swiss Albino mice (topical 0.2% solution vs control (WFI)), the “Time control-treated wounds required to close to the same extent achieved in jasmonic acid-treated wounds on day 1” value is “over 2.5 days”. For the same molecule, in the series with Swiss Albino mice (topical 5 μl of 0.2% solution, 5 doses Day 0-2, vs control (WFI)), the “Effect on wound closure / wound healing (in words)” value is “significantly accelerated the rate of wound healing; also recorded: experienced slower wound closure than mice receiving a 0.2% solution of jasmonic acid”. The “Stimulation of fibronectin production (in words)” value in series [2] was “effective for stimulating fibronectin production in human fibroblasts; also recorded: all compounds stimulated fibronectin production”. Besides, the “Mean optical density (OD) at 450 nm, fibronectin production” value was determined as 0.2060 in series [2] (1×10^−4 M), 0.2025 in series [2] (1×10^−5 M) and 0.1955 in series [2] (1×10^−6 M). Besides, the “Median optical density (OD) at 450 nm, fibronectin production” value worked out at 0.2060 in series [2] (1×10^−4 M), 0.2025 in series [2] (1×10^−5 M) and 0.1955 in series [2] (1×10^−6 M). Besides, in series [5] (0.25% in hyaluronic acid (0.5% aqueous solution), topical twice daily for two weeks, upper inner arm, individual patients, listed as JA), the “Time for cell renewal, treated skin (RENEWAL)” value is 12 Days (2×) and 16 Days and 15 Days (2×) and 17 Days and 14 Days and 11 Days. Besides, the “Skin irritation or redness” value in series [5] (in vivo) is given as “no visible sign of any skin irritation or redness”. The “Stimulation of collagen production (in words)” value in series [3] was “strongly stimulated collagen production at higher concentrations; also recorded: Higher concentrations of jasmonic acid and medium concentrations of zeatin also stimulated collagen production”. For the same molecule, the “Mean optical density (OD) at 450 nm, collagen production” value in series [3] (1×10^−4 M) was 0.8040; in series [3] (1×10^−5 M) it was 0.7895; in series [3] (1×10^−6 M), 0.7475. In addition, the figures for the “Median optical density (OD) at 450 nm, collagen production” value in series [3] (1×10^−4 M), in series [3] (1×10^−5 M) and in series [3] (1×10^−6 M) were 0.8040, 0.7895 and 0.7475, respectively. For the same molecule, the “Cell proliferating activity on human keratinocytes (in words)” value in series [4] is “strong cell proliferating activity especially at the lower concentrations; also recorded: all concentrations of jasmonic acid had an effect on cell growth”. Besides, the “Mean optical density (OD) at 490 nm” value in series [4] (1×10^−4 M) amounted to 0.5732; in series [4] (1×10^−5 M) it was 0.7628; in series [4] (1×10^−6 M) it was 0.7734. For the same molecule, the “Median optical density (OD) at 490 nm” value in series [4] (1×10^−4 M) turned out to be 0.5860; in series [4] (1×10^−5 M), 0.7750; in series [4] (1×10^−6 M), 0.7970.
With `CC(=O)Oc1ccccc1C(=O)O` [acetylsalicylic acid], the “Cell proliferating activity on human skin fibroblasts (in words)” value in series [1] is on record as “strong cell proliferating activity at all concentrations; also recorded: all concentrations of acetylsalicylic acid had a significant effect on cell growth”. For the same molecule, the “Mean optical density (OD) at 490 nm” value in series [1] (1×10^−4 M) stood at 0.5406; in series [1] (1×10^−5 M), 0.6276; in series [1] (1×10^−6 M), 0.6590. Besides, the results for the “Median optical density (OD) at 490 nm” value in series [1] (1×10^−4 M), in series [1] (1×10^−5 M) and in series [1] (1×10^−6 M) were 0.5290, 0.6270 and 0.6590, respectively.
